From publication PMC13372681, “A natural depsipeptide antibiotic binds the E-site of the bacterial ribosome” (Nature, 2026)
Values after ≈ are worked out from the molar mass of the structure shown. Like-named read-outs stand apart in the source and are kept apart here. Where a SMILES comes first, the peptide text is derived from it. Bridges are numbered along the chain shown (N, C = ends). [ ]: non-standard residue; d: D form. dOrn = NCCC[C@@H](N)C(=O)O

Tests used:
E. coli C1508 = conditions: broth microdilution, MDR clinical isolate
M. tuberculosis H37Ra = conditions: Middlebrook 7H9 + 10% OADC + 0.05% Tween-80
[1] = system: M. bovis BCG Pasteur ATCC 35734; conditions: Middlebrook 7H9 + 10% OADC + 0.05% Tween-80
S. aureus USA 300 = conditions: USA 300
E. coli ΔtolC ΔbamB = conditions: broth microdilution
E. coli ribosome = assay: Translocation assay; format: biochemical; conditions: 250 μM negamycin; pre-translocation complex, toeprint read-out
Protocol: In vitro translocation assay was carried out using the model mRNA MFK (Supplementary Table 9) as described. The mRNA was prepared by in vitro transcription of a PCR product amplified using the primers MF_F1, MF_F2, and MF_R (Supplementary Table 8). A 4.5 μl reaction containing 1 μM E. coli ribosomes, 0.5 μM mRNA, 1 μM tRNAi^Met, 0.5 μM radiolabelled NV1 primer (Supplementary Table 8), 2 U μl^−1 RiboLock RNase Inhibitor (Thermo), and antibiotic tested (50 μM MKM or 250 μM negamycin) in pure system buffer (PSB; 9 mM Mg(CH3COO)2, 5 mM K3PO4, 95 mM potassium glutamate, 5 mM NH4Cl, 0.5 mM CaCl2, 1 mM spermidine, 8 mM putrescine, 1 mM dithiothreitol, pH 7.3)[90] was incubated for 20 min at 37 °C. Then N-acetyl-Phe-N-tRNA^Phe (ref. [91]), in which amino acid is attached to the A3′ hydroxyl of the tRNA via an amide bond, was added to the final concentration of 2 μM followed by 10 min incubation at 37 °C. After addition of the E. coli EF-G and GTP to the final concentrations of 0.2 μM and 533 μM, respectively and incubation for 5 min at 30 °C, 1 µl of the mixture of AMV reverse transcriptase (Roche) and dNTPs (2.1 U/µl AMV reverse transcriptase and 2 mM dNTPs in PSB) was added, and the reactions were incubated for another 5 min at 30 °C. […]

Row | SMILES | MIC (E. coli C1508; Ca+ MHB Medium) | MIC (E. coli C1508; MOPS Minimal Medium) | MIC (E. coli C1508; RPMI Medium) | MIC (S. aureus ATCC 29213) | MIC (Bacillus subtilis 168) | MIC (M. tuberculosis H37Ra) | MIC [1] | MIC (S. aureus USA 300) | MIC (E. coli ΔtolC ΔbamB; Ca+ MHB Medium) | MIC (E. coli ΔtolC ΔbamB; MOPS Minimal Medium) | MIC (E. coli ΔtolC ΔbamB; RPMI Medium) | inhibition of EF-G-dependent translocation (E. coli ribosome)
1 | C[C@@H](O)[C@@H]1NC(=O)[C@@H](CCCNC(=N)N)NC(=O)[C@@H](CCCNC(=N)N)NC(=O)[C@@H](CC(N)=O)NC(=O)[C@@H](NC(=O)[C@@H](Cc2ccccc2)NC(=O)[C@@H](CCCNC(=N)N)NC(=O)[C@H](N)CCCNC(=N)N)[C@@H](C)OC(=O)[C@H](Cc2c[nH]cn2)NC1=O [MKM-B] (H-[dR][dR][dF]T[dN][dR][dR]TH; ester 4-C) | 16 µg/mL (≈ 13.1 µM) | 4 µg/mL (≈ 3.26 µM) | 4 µg/mL (≈ 3.26 µM) | 32 µg/mL (≈ 26.1 µM) | 32 µg/mL (≈ 26.1 µM) | 0.25 µg/mL | 0.25 µg/mL | 64 µg/mL (≈ 52.2 µM) | 4 µg/mL (≈ 3.26 µM) | 1 µg/mL (≈ 0.816 µM) | 1 µg/mL (≈ 0.816 µM) | –
2 | C[C@@H](O)[C@@H]1NC(=O)[C@@H](CCCNC(=N)N)NC(=O)[C@@H](CCCNC(=N)N)NC(=O)[C@@H](CC(N)=O)NC(=O)[C@@H](NC(=O)[C@@H](Cc2ccccc2)NC(=O)[C@@H](CCCN)NC(=O)[C@@H](CCCNC(=N)N)NC(=O)[C@@H](N)CCCNC(=N)N)[C@@H](C)OC(=O)[C@H](Cc2c[nH]cn2)NC1=O [MKM-E] (H-R[dR][dOrn][dF]T[dN][dR][dR]TH; ester 5-C; N-terminus assumed) | 8 µg/mL (≈ 5.97 µM) | 1 µg/mL (≈ 0.747 µM) | 1 µg/mL (≈ 0.747 µM) | 32 µg/mL (≈ 23.9 µM) | 32 µg/mL (≈ 23.9 µM) | 1 µg/mL | 1 µg/mL | 16 µg/mL (≈ 11.9 µM) | 2 µg/mL (≈ 1.49 µM) | 0.5 µg/mL (≈ 0.373 µM) | <0.5 µg/mL | –
3 | CN(CC(=O)O)NC(=O)C[C@H](N)C[C@@H](O)CN [negamycin] | – | – | – | – | – | – | – | – | – | – | – | notably inhibited
